Measured values: patent US12195455B2, “Succinate and fumarate acid addition salts of piperazine derivatives” (Asceneuron SA, priority 2018, dated 2025)

Experimental: The free base Example 35 (10 mg) was weighed into glass vials and water was added in 100 μL portions up to 1 mL then 0.5 mL portions thereafter. Solubility was assessed visually following a brief period of equilibration.

visual aqueous solubility: < 1250 µg/mL
SMILES: C[C@@H](c1ccc2scnc2c1)N1CCN(c2ncc([S@@](C)(=N)=O)cn2)CC1 (single isomer, unassigned) [Example 35]
